In general, IC50 refers to the concentration needed to halve the response being measured. Lower therefore signals greater potency in that assay.

Structures are written as SMILES.

The assay has as its target T1, NLRP3 inflammasome (Homo sapiens, UniProt Q96P20).
T1 construct: endogenous in cells; host or cells: THP-1 cells (PMA-differentiated, LPS-primed, nigericin-stimulated)
The assay can be described thus: Cell assay of inhibitory activity against NLRP3 inflammasome in THP-1 cells (LPS/nigericin stimulation, caspase-1 glo readout). Type of assay: cell-based. The settings on record: PMA-differentiated THP-1 cells; LPS 500 ng/ml 3 h, compound 1 h, nigericin 10 µg/ml 30 min; active caspase-1 in supernatant. How it is done: Experimental Example 1: Cell assay of inhibitory activity of the compounds of the present disclosure against NLRP3 inflammasome
Test compounds: the compounds of the present disclosure prepared in accordance with the methods described in the Examples
THP-1 was an immortalized human macrophage cell line.
Test instrument: Microplate reader (manufactured by PE)
• 1. THP-1 cells were cultured in 1640 complete medium (500 ml 1640+56 ml FBS+560 µl 1000× P/S+2 µl mercaptoethanol), and used within 3 to 20 passages. • 2. Coating of culture plates: 100 µl of polylysine solution was added into a 96-well cell culture plate and incubated at 37°C for 30min. The solution was discarded, and the plate was washed twice with PBS for later use. • 3. Induction of differentiation of THP-1: THP-1 cells were resuspended in an appropriate amount of complete medium containing 10 ng/ml PMA to achieve a cell density of 5×10^5 cells /ml in the suspension. The cell suspension was added into a 96-well plate with 100 µl of cell suspension per well, and the 96-well plate was cultured overnight for 16 hours in a 37°C CO2 cell incubator. • 4. Stimulation of THP-1: • a. Serum-free THP-1 culture medium containing LPS was added to achieve a final concentration of 500 ng/ml, and the resultant was cultured in a 37°C CO2 cell incubator for 3h; • b. The compounds to be tested were prepared into stock solutions at gradient concentrations with DMSO. The resulting solutions were added to the cells, evenly mixed, and finally diluted at 1:1000. The 96-well plate was cultured in a 37°C CO2 cell incubator for 1h. • c. Nigericin was added to each well to achieve a final concentration of 10 µg/ml, and the resultant was cultured in a 37°C CO2 cell incubator for 30 min. • d. The resulting culture medium in each well was transferred to a new culture plate, which was then centrifuged at 3000 rpm for 5min. Afterwards, the supernatant was transferred to a new 96-well plate. • e. The collected supernatant samples of the cell culture medium were determined by using a commercial caspase-1 glo kit, and the content of human active caspase-1 was determined according to the manufacturer's instructions.

T1 sequence (Q96P20 whole entry): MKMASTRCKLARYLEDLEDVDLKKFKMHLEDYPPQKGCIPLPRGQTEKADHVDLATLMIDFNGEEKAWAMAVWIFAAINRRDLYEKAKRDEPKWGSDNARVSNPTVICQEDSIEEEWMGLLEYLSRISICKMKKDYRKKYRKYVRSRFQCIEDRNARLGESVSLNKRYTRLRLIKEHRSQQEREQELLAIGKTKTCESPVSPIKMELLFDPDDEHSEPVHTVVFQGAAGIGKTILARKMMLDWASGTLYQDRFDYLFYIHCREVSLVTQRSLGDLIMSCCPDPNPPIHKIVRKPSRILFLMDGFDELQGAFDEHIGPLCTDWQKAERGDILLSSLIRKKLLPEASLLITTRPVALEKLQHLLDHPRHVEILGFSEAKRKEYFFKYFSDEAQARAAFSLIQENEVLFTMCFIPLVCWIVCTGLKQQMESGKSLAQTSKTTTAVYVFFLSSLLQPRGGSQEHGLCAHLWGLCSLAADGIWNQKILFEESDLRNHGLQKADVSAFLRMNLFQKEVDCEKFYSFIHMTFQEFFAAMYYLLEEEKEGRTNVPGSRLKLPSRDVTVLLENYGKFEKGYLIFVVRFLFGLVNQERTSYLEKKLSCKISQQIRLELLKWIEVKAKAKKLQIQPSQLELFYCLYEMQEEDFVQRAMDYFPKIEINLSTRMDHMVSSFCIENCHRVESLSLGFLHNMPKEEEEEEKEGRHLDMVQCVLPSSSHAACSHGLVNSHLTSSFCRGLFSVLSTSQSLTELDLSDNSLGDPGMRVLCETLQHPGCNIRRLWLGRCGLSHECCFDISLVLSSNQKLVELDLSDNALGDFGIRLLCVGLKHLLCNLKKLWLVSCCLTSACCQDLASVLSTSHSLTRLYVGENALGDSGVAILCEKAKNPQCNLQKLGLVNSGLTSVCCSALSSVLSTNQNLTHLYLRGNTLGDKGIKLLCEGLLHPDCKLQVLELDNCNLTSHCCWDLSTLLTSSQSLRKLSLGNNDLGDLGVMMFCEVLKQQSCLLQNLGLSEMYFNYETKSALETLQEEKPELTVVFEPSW

Turning to `CNCC(=O)Nc1nnc(-c2ccc(C(F)(F)F)cc2O)c(C2CC2)n1` [Compound 60, N-(5-cyclopropyl-6-(2-hydroxy-4-(trifluoromethyl)phenyl)-1,2,4-triazin-3-yl)-2-(methylamino)acetamide], the IC50 worked out at 32.1 nM.

In turn, `C#Cc1ccc(-c2nnc(NC(=O)[C@H](N)Cc3ccccc3)cc2C2CC2)c(O)c1` [Compound 52, (R)-2-amino-N-(5-cyclopropyl-6-(4-ethynyl-2-hydroxyphenyl)pyridazin-3-yl)-3-phenylpro panamide] returned an IC50 of 12.9 nM.

Consider `C#Cc1ccc(-c2nnc(NC(=O)CNC3CC3)cc2C2CC2)c(O)c1` [Compound 10, N-(5-cyclopropyl-6-(4-ethynyl-2-hydroxyphenyl)pyridazin-3-yl)-2-(cyclopropylamino)acet amide], for which the midpoint of inhibition, the IC50, lay at 19.2 nM.

With `C[C@@H](N)C(=O)Nc1cc(C2CC2)c(-c2ccc(C(F)(F)F)cc2O)nn1` [Compound 50, (R)-2-amino-N-(5-cyclopropyl-6-(2-hydroxy-4-(trifluoromethyl)phenyl)pyridazin-3-yl)pro panamide], it took 6.8 nM to reach half-maximal inhibition (IC50).

Take `C#Cc1ccc(-c2nnc(NC(=O)CNCC)cc2C)c(O)c1` [Compound 2, N-(6-(4-ethynyl-2-hydroxyphenyl)-5-methylpyridazin-3-yl)-2-(ethylamino)acetamide]: half-maximal inhibition (IC50) required 18.1 nM.

Compound `CC(C)c1cc(NC(=O)[C@@H](C)N)nnc1-c1ccc(C(F)(F)F)cc1O` [Compound 64, (R)-2-amino-N-(6-(2-hydroxy-4-(trifluoromethyl)phenyl)-5-isopropylpyridazin-3-yl)propa namide] displayed an IC50 of 14.1 nM.

In turn, `C#Cc1ccc(-c2nnc(NC(=O)CNC)cc2C)c(O)c1` [Compound 1, N-(6-(4-ethynyl-2-hydroxyphenyl)-5-methylpyridazin-3-yl)-2-(methylamino)acetamide] registered a concentration for half-maximal inhibition (IC50) of 16.5 nM.

On to `C#Cc1ccc(-c2nnc(NC(=O)[C@@H](C)N)cc2C2CCC2)c(O)c1` [Compound 65, (R)-2-amino-N-(5-cyclobutyl-6-(4-ethynyl-2-hydroxyphenyl)pyridazin-3-yl)propanamide], for which inhibition was half-maximal at 31.5 nM (IC50).

In turn, `C#Cc1ccc(-c2nnc(NC(=O)CNC)cc2C2CCC2)c(O)c1` [Compound 62, N-(5-cyclobutyl-6-(4-ethynyl-2-hydroxyphenyl)pyridazin-3-yl)-2-(methylamino)acetamide] displayed an IC50 of 20.9 nM.

Consider `CNCC(=O)Nc1cc(C(C)C)c(-c2ccc(C(F)(F)F)cc2O)nn1` [Compound 19, N-(6-(2-hydroxy-4-(trifluoromethyl)phenyl)-5-isopropylpyridazin-3-yl)-2-(methylamino)a cetamide], for which half-maximal inhibition (IC50) required 3.4 nM.

For the compound `C#Cc1ccc(-c2nnc(NC(=O)CNC)cc2C(C)C)c(O)c1` [Compound 16, N-(6-(4-ethynyl-2-hydroxyphenyl)-5-isopropylpyridazin-3-yl)-2-(methylamino)acetamide], the half-maximal inhibitory concentration (IC50) is 8.5 nM.

With `C#Cc1ccc(-c2nnc(NC(=O)CNCC3CC3)cc2C)c(O)c1` [Compound 34, N-(6-(4-ethynyl-2-hydroxyphenyl)-5-methylpyridazin-3-yl)-2-((cyclopropylmethyl)amino) acetamide], half-maximal inhibition (IC50) was put at 18.8 nM. This IC50 is about 2.2-fold higher than that of the compound before.

In the case of `C#Cc1ccc(-c2nnc(NC(=O)CN)cc2C2CC2)c(O)c1` [Compound 13, 2-amino-N-(5-cyclopropyl-6-(4-ethynyl-2-hydroxyphenyl)pyridazin-3-yl)acetamide], the IC50 stood at 23.2 nM.

Regarding `CNCC(=O)Nc1cc(C2CC2)c(-c2ccc(C(F)(F)F)cc2O)nn1` [Compound 20, N-(5-cyclopropyl-6-(2-hydroxy-4-(trifluoromethyl)phenyl)pyridazin-3-yl)-2-(methylamino)acetamide], the IC50 was found to be 0.3 nM.

`C#Cc1ccc(-c2nnc(NC(=O)[C@H]3CCCN3)cc2C2CC2)c(O)c1` [Compound 43, (R)-N-(5-cyclopropyl-6-(4-ethynyl-2-hydroxyphenyl)pyridazin-3-yl)pyrrolidine-2-carboxamide]: the IC50 worked out at 21.4 nM.

In turn, `C#Cc1ccc(-c2nnc(NC(=O)[C@H](N)CO)cc2C2CC2)c(O)c1` [Compound 55, (R)-2-amino-N-(5-cyclopropyl-6-(4-ethynyl-2-hydroxyphenyl)pyridazin-3-yl)-3-hydroxypr opanamide] had an IC50 of 23.6 nM. This IC50 and that of the compound before are within 1.5-fold of each other.

As for `C#Cc1ccc(-c2nnc(NC(=O)CNCC)cc2C2CC2)c(O)c1` [Compound 8, N-(5-cyclopropyl-6-(4-ethynyl-2-hydroxyphenyl)pyridazin-3-yl)-2-(ethylamino)acetamide], the IC50 worked out at 1.4 nM.

With `C#Cc1ccc(-c2nnc(NC(=O)CNC3CC(O)C3)cc2C2CC2)c(O)c1` (centres unmarked) [Compound 33, N-(5-cyclopropyl-6-(4-ethynyl-2-hydroxyphenyl)pyridazin-3-yl)-2-((3-hydroxycyclobutyl)amino)acetamide], the IC50 worked out at 14.5 nM.

`C#Cc1ccc(-c2nnc(NC(=O)[C@@H](C)N)cc2C(C)C)c(O)c1` [Compound 66, (R)-2-amino-N-(6-(4-ethynyl-2-hydroxyphenyl)-5-isopropylpyridazin-3-yl)propanamide] yielded an IC50 of 13.9 nM.

For the compound `CNCC(=O)Nc1cc(C2CCC2)c(-c2ccc(C(F)(F)F)cc2O)nn1` [Compound 61, N-(5-cyclobutyl-6-(2-hydroxy-4-(trifluoromethyl)phenyl)pyridazin-3-yl)-2-(methylamino) acetamide], the half-inhibitory concentration (IC50) came out at 6.2 nM. Compared with the last compound, the IC50 is about 2.2-fold lower.
